The kinase profiling compilation of Christmann-Franck et al. (2016)

Legend:
Test in all cases: split-luciferase competition binding
AURKA (human) = AURKA (human) (UniProt O14965); conditions: compound 10.0 µM
RPS6KA2 KD1 (human) = RPS6KA2 KD1 (human) (UniProt Q15349); conditions: compound 10.0 µM
PKN1 (human) = PKN1 (human) (UniProt Q16512); conditions: compound 10.0 µM
AKT3 (human) = AKT3 (human) (UniProt Q9Y243); conditions: compound 10.0 µM
AKT2 (human) = AKT2 (human) (UniProt P31751); conditions: compound 10.0 µM
PRKCE (human) = PRKCE (human) (UniProt Q02156); conditions: compound 10.0 µM
RPS6KA1 KD1 (human) = RPS6KA1 KD1 (human) (UniProt Q15418); conditions: compound 10.0 µM
STK32B (human) = STK32B (human) (UniProt Q9NY57); conditions: compound 10.0 µM
PRKX (human) = PRKX (human) (UniProt P51817); conditions: compound 10.0 µM
SGK3 (human) = SGK3 (human) (UniProt Q96BR1); conditions: compound 10.0 µM
PDPK1 (human) = PDPK1 (human) (UniProt O15530); conditions: compound 10.0 µM
RPS6KA5 KD1 (human) = RPS6KA5 KD1 (human) (UniProt O75582); conditions: compound 10.0 µM
PRKCQ (human) = PRKCQ (human) (UniProt Q04759); conditions: compound 10.0 µM
RPS6KA6 KD1 (human) = RPS6KA6 KD1 (human) (UniProt Q9UK32); conditions: compound 10.0 µM
PRKACB (human) = PRKACB (human) (UniProt P22694); conditions: compound 10.0 µM
AURKC (human) = AURKC (human) (UniProt Q9UQB9); conditions: compound 10.0 µM
SGK2 (human) = SGK2 (human) (UniProt Q9HBY8); conditions: compound 10.0 µM
PRKCG (human) = PRKCG (human) (UniProt P05129); conditions: compound 10.0 µM
DMPK (human) = DMPK (human) (UniProt Q09013); conditions: compound 10.0 µM
PRKACA (mouse) = conditions: compound 10.0 µM; accession and sequence are those of the human protein
RPS6KA4 KD1 (human) = RPS6KA4 KD1 (human) (UniProt O75676); conditions: compound 10.0 µM
PRKCI (human) = PRKCI (human) (UniProt P41743); conditions: compound 10.0 µM
PRKCH (human) = PRKCH (human) (UniProt P24723); conditions: compound 10.0 µM
AURKB (human) = AURKB (human) (UniProt Q96GD4); conditions: compound 10.0 µM
AKT1 (human) = AKT1 (human) (UniProt P31749); conditions: compound 10.0 µM
PRKCD (human) = PRKCD (human) (UniProt Q05655); conditions: compound 10.0 µM
RPS6KA3 KD1 (human) = RPS6KA3 KD1 (human) (UniProt P51812); conditions: compound 10.0 µM

Chain of AURKB (human) (Q96GD4 whole entry, looked up): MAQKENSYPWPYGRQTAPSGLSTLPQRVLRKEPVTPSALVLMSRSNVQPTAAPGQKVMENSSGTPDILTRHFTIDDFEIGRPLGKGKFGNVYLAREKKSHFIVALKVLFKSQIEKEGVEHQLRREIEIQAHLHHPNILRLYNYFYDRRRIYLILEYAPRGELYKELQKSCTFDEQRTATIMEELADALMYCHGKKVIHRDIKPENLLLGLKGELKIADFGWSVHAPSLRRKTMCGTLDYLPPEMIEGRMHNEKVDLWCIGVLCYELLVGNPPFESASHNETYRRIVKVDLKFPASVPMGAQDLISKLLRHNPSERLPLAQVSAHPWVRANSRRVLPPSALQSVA
Chain of RPS6KA5 KD1 (human) (O75582 whole entry, looked up): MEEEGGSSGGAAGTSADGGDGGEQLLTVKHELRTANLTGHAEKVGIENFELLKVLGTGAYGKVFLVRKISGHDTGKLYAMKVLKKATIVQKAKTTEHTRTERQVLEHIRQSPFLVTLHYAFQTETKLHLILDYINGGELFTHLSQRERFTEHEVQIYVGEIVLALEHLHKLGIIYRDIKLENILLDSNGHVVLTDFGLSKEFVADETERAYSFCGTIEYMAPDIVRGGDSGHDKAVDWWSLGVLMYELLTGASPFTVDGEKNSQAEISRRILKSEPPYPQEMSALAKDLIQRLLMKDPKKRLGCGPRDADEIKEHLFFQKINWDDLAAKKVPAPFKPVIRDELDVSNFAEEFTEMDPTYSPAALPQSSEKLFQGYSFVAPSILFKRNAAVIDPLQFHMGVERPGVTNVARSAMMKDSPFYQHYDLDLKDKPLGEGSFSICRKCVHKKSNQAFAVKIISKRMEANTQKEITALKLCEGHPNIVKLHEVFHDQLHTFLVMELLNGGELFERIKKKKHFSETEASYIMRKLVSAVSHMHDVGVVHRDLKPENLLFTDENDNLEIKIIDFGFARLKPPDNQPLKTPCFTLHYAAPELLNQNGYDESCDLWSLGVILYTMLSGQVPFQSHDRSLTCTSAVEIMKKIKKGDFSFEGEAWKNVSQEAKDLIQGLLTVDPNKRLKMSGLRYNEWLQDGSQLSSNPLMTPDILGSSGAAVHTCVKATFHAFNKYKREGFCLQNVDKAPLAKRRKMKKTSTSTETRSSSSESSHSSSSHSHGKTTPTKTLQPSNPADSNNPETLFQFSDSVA
Chain of STK32B (human) (Q9NY57 whole entry, looked up): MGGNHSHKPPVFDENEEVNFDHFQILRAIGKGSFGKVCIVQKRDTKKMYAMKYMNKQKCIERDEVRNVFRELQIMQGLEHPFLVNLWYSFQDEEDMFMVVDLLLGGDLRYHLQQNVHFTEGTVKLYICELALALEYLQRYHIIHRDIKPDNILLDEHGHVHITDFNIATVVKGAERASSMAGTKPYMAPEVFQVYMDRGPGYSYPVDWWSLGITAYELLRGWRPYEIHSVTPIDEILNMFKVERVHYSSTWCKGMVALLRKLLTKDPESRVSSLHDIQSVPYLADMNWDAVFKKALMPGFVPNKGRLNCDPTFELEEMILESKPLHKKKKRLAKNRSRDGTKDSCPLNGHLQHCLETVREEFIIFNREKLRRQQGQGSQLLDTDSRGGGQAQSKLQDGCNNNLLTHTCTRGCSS
Chain of PDPK1 (human) (O15530 whole entry, looked up): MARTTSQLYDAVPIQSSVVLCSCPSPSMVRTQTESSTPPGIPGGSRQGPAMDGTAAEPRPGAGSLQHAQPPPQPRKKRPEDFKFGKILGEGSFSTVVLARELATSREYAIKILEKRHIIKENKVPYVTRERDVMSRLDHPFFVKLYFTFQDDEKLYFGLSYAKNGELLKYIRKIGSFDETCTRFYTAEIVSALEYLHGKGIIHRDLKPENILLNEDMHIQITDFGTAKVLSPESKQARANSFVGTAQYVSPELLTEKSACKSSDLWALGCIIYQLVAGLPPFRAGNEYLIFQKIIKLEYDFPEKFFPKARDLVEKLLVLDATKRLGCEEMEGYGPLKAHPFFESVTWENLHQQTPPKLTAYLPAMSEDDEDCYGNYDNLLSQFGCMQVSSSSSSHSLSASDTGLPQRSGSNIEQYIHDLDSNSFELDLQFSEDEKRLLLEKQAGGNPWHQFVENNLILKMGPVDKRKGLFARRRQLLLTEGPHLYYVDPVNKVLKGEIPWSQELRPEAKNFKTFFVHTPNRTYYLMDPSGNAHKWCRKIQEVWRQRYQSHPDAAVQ
Chain of AURKA (human) (O14965 whole entry, looked up): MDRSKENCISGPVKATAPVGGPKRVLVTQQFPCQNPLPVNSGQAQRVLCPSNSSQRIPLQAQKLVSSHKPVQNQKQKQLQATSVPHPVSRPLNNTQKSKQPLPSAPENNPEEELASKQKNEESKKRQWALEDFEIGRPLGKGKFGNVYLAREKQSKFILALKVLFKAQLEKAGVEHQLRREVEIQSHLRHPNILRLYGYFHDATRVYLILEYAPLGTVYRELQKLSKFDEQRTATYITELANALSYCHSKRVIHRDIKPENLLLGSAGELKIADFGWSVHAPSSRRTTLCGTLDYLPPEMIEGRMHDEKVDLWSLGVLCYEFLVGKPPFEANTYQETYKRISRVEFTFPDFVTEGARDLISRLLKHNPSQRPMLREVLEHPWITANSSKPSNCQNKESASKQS
Chain of AKT1 (human) (P31749 whole entry, looked up): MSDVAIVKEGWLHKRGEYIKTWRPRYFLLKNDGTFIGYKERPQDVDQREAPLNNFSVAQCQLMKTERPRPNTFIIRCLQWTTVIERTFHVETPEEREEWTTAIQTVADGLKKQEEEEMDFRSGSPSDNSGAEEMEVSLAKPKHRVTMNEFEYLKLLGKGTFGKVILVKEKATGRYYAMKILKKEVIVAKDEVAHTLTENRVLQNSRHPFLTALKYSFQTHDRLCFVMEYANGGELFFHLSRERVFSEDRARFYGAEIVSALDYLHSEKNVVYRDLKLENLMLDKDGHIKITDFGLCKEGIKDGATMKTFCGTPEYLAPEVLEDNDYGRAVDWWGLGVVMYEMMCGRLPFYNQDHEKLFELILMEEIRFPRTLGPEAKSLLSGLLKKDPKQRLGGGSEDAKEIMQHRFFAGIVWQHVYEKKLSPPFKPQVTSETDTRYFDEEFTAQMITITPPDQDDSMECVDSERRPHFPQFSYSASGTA
Chain of RPS6KA1 KD1 (human) (Q15418 whole entry, looked up): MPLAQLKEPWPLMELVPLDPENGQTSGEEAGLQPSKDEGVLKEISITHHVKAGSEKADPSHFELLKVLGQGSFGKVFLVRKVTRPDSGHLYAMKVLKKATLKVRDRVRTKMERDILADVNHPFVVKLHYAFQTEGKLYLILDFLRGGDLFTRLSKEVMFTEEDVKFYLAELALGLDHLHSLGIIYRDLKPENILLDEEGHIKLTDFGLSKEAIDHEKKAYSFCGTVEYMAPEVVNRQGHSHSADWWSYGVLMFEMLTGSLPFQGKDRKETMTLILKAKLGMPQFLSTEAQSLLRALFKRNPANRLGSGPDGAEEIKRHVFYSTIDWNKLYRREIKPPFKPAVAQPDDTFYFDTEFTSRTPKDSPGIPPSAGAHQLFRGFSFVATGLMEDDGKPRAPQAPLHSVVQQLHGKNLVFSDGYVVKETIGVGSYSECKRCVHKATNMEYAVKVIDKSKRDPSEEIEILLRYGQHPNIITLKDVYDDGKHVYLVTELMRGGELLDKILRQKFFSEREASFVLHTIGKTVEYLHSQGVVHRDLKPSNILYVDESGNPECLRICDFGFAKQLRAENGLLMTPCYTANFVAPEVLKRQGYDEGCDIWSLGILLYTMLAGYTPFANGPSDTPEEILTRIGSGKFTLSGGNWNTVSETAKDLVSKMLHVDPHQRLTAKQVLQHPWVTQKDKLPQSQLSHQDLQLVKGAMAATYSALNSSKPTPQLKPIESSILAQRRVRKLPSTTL
Chain of SGK3 (human) (Q96BR1 whole entry, looked up): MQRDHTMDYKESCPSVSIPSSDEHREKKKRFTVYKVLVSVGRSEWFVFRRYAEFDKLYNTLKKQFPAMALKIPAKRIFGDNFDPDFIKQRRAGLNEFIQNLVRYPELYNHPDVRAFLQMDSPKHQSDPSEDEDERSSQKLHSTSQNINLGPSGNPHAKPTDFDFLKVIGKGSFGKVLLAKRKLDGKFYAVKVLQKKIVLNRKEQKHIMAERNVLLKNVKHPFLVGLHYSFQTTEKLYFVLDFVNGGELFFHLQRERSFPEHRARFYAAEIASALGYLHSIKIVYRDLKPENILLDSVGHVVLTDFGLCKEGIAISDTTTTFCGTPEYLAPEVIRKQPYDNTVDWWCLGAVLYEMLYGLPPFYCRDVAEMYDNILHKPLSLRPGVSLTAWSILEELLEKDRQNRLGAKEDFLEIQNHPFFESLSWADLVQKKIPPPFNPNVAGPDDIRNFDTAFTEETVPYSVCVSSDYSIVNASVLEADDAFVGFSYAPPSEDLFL

inhibition (AURKA (human)) [%] | inhibition (RPS6KA2 KD1 (human)) [%] | inhibition (PKN1 (human)) [%] | inhibition (AKT3 (human)) [%] | inhibition (AKT2 (human)) [%] | inhibition (PRKCE (human)) [%] | inhibition (RPS6KA1 KD1 (human)) [%] | inhibition (STK32B (human)) [%] | inhibition (PRKX (human)) [%] | inhibition (SGK3 (human)) [%] | inhibition (PDPK1 (human)) [%] | inhibition (RPS6KA5 KD1 (human)) [%] | inhibition (PRKCQ (human)) [%] | inhibition (RPS6KA6 KD1 (human)) [%] | inhibition (PRKACB (human)) [%] | inhibition (AURKC (human)) [%] | inhibition (SGK2 (human)) [%] | inhibition (PRKCG (human)) [%] | inhibition (DMPK (human)) [%] | inhibition (PRKACA (mouse)) [%] | SMILES | other results
2 | 59 | 5 | 37 | 0 | 37 | 40 | 29 | 10 | 2 | 0 | 39 | 69 | 32 | 34 | 0 | 0 | 11 | 34 | 26 | CN(C)CCCn1cc(C2=C(c3c[nH]c4ccccc34)C(=O)NC2=O)c2ccccc21 | inhibition (RPS6KA4 KD1 (human)): 30%; inhibition (PRKCI (human)): 35%; inhibition (PRKCH (human)): 77%; inhibition (AURKB (human)): 0%; inhibition (AKT1 (human)): 5%; inhibition (PRKCD (human)): 52%; inhibition (RPS6KA3 KD1 (human)): 33%
0 | 0 | 7 | 0 | 0 | 5 | 0 | 8 | 5 | 0 | 0 | 0 | 1 | 0 | 0 | 6 | 0 | 4 | 3 | 1 | c1ccc(-c2n[nH]cc2-c2ccnc3ccccc23)nc1 | inhibition (RPS6KA4 KD1 (human)): 0%; inhibition (PRKCI (human)): 0%; inhibition (PRKCH (human)): 0%; inhibition (AURKB (human)): 25%; inhibition (AKT1 (human)): 0%; inhibition (PRKCD (human)): 0%; inhibition (RPS6KA3 KD1 (human)): 0%
41 | 32 | 10 | 0 | 0 | 0 | 0 | 0 | 12 | 12 | 0 | 43 | 20 | 21 | 5 | 80 | 17 | 3 | 13 | 16 | COc1cc2nccc(Oc3ccc(NC(=O)Nc4ccc(F)cc4F)c(F)c3)c2cc1OC | inhibition (RPS6KA4 KD1 (human)): 23%; inhibition (PRKCI (human)): 0%; inhibition (PRKCH (human)): 0%; inhibition (AURKB (human)): 71%; inhibition (AKT1 (human)): 6%; inhibition (PRKCD (human)): 0%; inhibition (RPS6KA3 KD1 (human)): 12%
0 | 0 | 0 | 0 | 0 | 0 | 20 | 0 | 0 | 0 | 0 | 0 | 0 | 0 | 0 | 0 | 0 | 0 | 0 | 0 | CC[C@@H](CO)Nc1nc(NCc2ccccc2)c2ncn(C(C)C)c2n1 | inhibition (RPS6KA4 KD1 (human)): 0%; inhibition (PRKCI (human)): 0%; inhibition (PRKCH (human)): 0%; inhibition (AURKB (human)): 0%; inhibition (AKT1 (human)): 0%; inhibition (PRKCD (human)): 2%; inhibition (RPS6KA3 KD1 (human)): 0%
